# Where two headings read alike, the source gives them in different places.
# Assays:
# hERG channels = biological target: T1, hERG channels (Homo sapiens, UniProt Q12809); assay: hERG inhibition (whole cell patch clamp, HEK293); format: cell-based; conditions: 300nM to 30µM, HEK293 cells
# T1 construct: host or cells: HEK293
# Description: HEK293 cells (Eurofins Discover X, Catalogue number CYL3039) stably expressing hERG channels (human ether-a-go-go-related gene potassium channels were plated onto 12 mm coverslips, 12 to 18 h before performing the assay. Cells with coverslips were placed in recording chamber of molecular devices profiled with extracellular solution. Glass capillary with a tip resistance from […] was back filled with intracellular solution. Giga seal was attained using a sequence of positive and negative pressure.
# Whole cell configuration was attained using a gentle suction. Cell capacitance and series resistance compensation was done using software controls provided in multi clamp 700B commander. The cells are maintained at a holding potential of -80mV; hERG currents are activated by cell depolarization to +20mV for 2 seconds followed by a 3 second repolarization to -60mV (frequency: 0.05Hz).
# Electrical signals were filtered at 2 KHz and digitized at 5 KHz. Series resistance compensation was typically 60% to 70% such that voltage errors were less than 5 mV. […] Data were acquired using Clampex acquisition software. […]
# Amplitude of the tail current upon repolarization to -60mV (pA) and inhibition of the hERG tail current with respect to untreated cells (%) are measured. […]
# CYP2B6 = biological target: T2, CYP2B6 (Homo sapiens, UniProt P20813); assay: Cytochrome P450 inhibition; format: in vitro ADME; conditions: 2B6, Human Liver Microsome
# T2 construct: 158 µl of Human Liver Microsome working stock solution; from tissue; host or cells: human liver microsomes
# T2 sequence (P20813 whole entry): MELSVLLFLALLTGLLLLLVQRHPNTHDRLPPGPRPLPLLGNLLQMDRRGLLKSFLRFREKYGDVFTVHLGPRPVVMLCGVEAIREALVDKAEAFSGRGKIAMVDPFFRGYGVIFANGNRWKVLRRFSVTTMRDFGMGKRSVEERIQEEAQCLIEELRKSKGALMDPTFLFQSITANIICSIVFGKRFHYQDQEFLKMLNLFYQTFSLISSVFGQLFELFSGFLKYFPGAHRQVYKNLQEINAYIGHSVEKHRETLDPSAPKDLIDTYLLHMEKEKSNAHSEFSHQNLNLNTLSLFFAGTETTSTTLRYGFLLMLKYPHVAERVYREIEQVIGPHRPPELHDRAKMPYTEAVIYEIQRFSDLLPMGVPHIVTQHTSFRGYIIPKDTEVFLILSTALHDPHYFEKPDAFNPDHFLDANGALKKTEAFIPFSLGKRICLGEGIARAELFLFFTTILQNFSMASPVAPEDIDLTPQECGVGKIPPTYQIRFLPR
# Description: Ready to use PBS, 9.07-10.00 g, (Sigma Aldrich, catalogue code P3813) was dissolved in […] MilliQ water and pH was adjusted to 7.4.
# Substrate pool was done pooling 14 µl of Phenacitin 10 mM (CYP1A2 substrate, Sigma Aldrich, catalogue number 7740), 14 µl Diclofenac 10 mM (CYP2C9 substrate, Sigma Aldrich, catalogue number D6899), 14 µl Dextromethorphan 10 mM (CYP2D6 substrate, Sigma Aldrich, catalogue number D9684), 20.28 µl Midazolam 2.76 mM (CYP3A4 substrate, Sigma Aldrich, catalogue number UC430) and 14 µl Bupropion HCl 10 mM (CYP2B6 substrate, Sigma Aldrich, catalogue number B102), and diluted to 2800 µl with PBS buffer pH 7.4.
# Inhibitors of the cytochromes tested were the following: Alpha-naphthoflavone (CYP1A2, Sigma Aldrich, catalogue number N5757); Sulfaphenazole (CYP2C9, Sigma Aldrich, catalogue number S0758); Ticlopidine (CYP2B6, Sigma Aldrich, catalogue number T6654); Quinidine (CYP2D6, Sigma Aldrich, catalogue number Q3625); Ketoconazole (CYP3A4, Sigma Aldrich, catalogue number K1003).
# 158 µl of Human Liver Microsome working stock solution in PBS buffer pH7.4 was added to reaction plate (0.253 mg/ml, 158 µl/well).
# Test compounds and inhibitors were prepared in DMSO and diluted with buffer to prepare working solution with the final concentration of 3000, 999, 333, 111, 37 and 12 µM. 2 µl of working solution of the test compounds or inhibitors listed above were added to reaction plate (2 µl/ well). For control, 2 µl of Acetonitrile containing DMSO (without inhibitor) was added to reaction plate. 20 µl of substrate pool was added to all the wells of the reaction plate. The samples were mixed using the vortex and pre-incubated at 37°C for 5 min.
# The NADPH solution 10 mM in PBS buffer pH 7.4 was pre-warmed at 37°C for 5 min. 20 µl of pre-warmed NADPH solution was added to the reaction plate and then incubated at 37°C for 10 min.
# The reaction was terminated by adding cold ACN (200 µl/well) to the reaction mixture and centrifuged at 4,000 rpm for 20 minutes.
# After centrifugation, 200 µl of supernatant was submitted for LC-MS/MS analysis. Mobile phases include 0.1% formic acid in water and methanol:acetonitrile, 50% (v/v).
# Column is Phenomenex kinetic C18, 50 x 4.6 mm, […]. IC50 values were calculated using Graphpad Prism (version 4.03).
# [1] = Plasma protein binding (rapid equilibrium dialysis); format: in vitro ADME; conditions: for fraction unbound at 5 h, 10 µM: read-out: % Bound in Plasma ± SD (converted); for recovery at 5 h, 10 µM: read-out: % Recovery ± SD
# Description: In vitro evaluation of test compounds for protein binding in plasma was performed using the rapid equilibrium dialysis method. Ready to use PBS, 9.07-10.00 g, (Sigma Aldrich, catalogue code P3813) was dissolved in 1l of MilliQ water and pH was adjusted to 7.4. 10 mM stock of the test compound was prepared in DMSO. 1 mM solution was prepared by diluting 10 mM stock in methanol. 10 µM working stock was prepared in plasma by spiking 3 µl of 1 mM solution into 297 µl of plasma. An aliquot of 200 µl of plasma containing test compound was spiked into donor well (red chamber) of the insert. 350 µl of PBS was spiked into receiver well (white chamber) of the insert. The plate was incubated at 37 °C in thermo-mixer at 400 rpm for 5 hours. The samples were matrix equilibrated with opposite matrix: 25 µl of plasma sample was matched with 25 µl of blank buffer (PBS) and 25 µl of buffer sample was matched with 25 µl of plasma.
# Matrix matched samples were precipitated with 200 µl of acetonitrile containing Telmisartan 100 ng/ml as internal standard. Buffer samples were of phosphate buffer saline pH 7.4 incubated for 5.5 h along with plasma samples. Blank samples were the ones matched with Phosphate buffer Saline pH 7.4 maintained at room temperature.
# Samples were vortexed at 1000 rpm for 5 min and centrifuged at 4000 rpm for 10 min. Supernatant was separated, diluted 2 fold with water and analyzed in LC-MS/MS.
# To control samples were processed immediately after the preparation of plasma working stock solutions. These samples serve as a measure for calculating the percentage recovery from plasma and buffer of test compounds. The percentage of plasma unbound (% Unbound) and bound (% Bound) fractions were calculated by the following equations: %Unbound = (1−((Tc−Fc))/(Tc))∗100 [formula] %Bound = 100−%Unbound [formula] %Recovery = 100∗(Fc + Tc)/(T0) [formula]
# TC = Compound concentration as determined by the calculated concentration on the plasma side of the membrane (donor well); FC = Free compound concentration as determined by the calculated concentration on the buffer side of the membrane (receiver well); T0 = Total compound concentration as determined before dialysis.
# The API400 MS and Agilent 1260 Multi sampler LC were used, with 10 uL injection volumes. Typically, plasma protein binding is determined over ≥ 4 hours at 37°C. Under these conditions chemical and/or enzymatic degradation of compounds can occur. The determination of compound recovery is, therefore, of pivotal importance. A low % recovery can flag a variety of potential problems: • The compound is hydrolytically or metabolically unstable • The compound is highly bound to the rapid equilibrium dialysis device • The compound is poorly soluble
# T1 sequence (Q12809 whole entry): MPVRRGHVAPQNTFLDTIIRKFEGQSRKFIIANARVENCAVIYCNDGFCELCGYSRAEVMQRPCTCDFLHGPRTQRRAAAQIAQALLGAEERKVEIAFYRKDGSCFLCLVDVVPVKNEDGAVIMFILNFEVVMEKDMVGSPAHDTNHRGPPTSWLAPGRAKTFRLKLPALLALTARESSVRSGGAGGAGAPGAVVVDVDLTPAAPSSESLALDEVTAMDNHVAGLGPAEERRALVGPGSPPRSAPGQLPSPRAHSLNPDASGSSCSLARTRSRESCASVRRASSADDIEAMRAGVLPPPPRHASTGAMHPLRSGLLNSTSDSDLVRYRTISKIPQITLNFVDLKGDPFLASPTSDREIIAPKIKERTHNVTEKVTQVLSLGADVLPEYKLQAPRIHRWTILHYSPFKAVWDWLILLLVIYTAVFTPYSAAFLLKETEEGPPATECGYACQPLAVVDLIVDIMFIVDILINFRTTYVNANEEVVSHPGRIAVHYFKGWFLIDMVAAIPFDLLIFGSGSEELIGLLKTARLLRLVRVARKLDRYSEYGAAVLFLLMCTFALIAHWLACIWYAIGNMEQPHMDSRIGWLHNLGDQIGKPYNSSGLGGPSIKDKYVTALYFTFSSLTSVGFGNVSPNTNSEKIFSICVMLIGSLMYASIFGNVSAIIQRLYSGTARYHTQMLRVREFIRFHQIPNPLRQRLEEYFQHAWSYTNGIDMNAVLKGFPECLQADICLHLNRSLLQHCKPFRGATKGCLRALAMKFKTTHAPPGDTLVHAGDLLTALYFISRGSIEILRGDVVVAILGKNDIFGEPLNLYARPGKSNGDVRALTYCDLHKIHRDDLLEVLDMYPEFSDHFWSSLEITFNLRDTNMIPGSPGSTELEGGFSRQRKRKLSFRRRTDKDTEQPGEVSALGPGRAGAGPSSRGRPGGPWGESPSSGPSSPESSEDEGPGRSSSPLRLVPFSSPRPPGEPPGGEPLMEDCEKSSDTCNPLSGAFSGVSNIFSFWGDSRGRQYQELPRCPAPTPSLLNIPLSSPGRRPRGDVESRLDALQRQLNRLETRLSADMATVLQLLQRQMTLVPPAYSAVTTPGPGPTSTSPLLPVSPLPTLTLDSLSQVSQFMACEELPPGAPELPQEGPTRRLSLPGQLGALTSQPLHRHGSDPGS
compound,measurement,setting,value
CCCCc1cn(-c2ccc(-c3nnc(-c4ccccc4C(F)(F)F)o3)cc2)nn1 [Compound 5],effect on the conductance of the hERG channel,hERG channels,No effect on the conductance of the hERG channel
same,IC50,CYP2B6,> 30 µM
same,"fraction unbound at 5 h, 10 µM",[1]; Human plasma,0.0022
same,"recovery at 5 h, 10 µM",[1]; Human plasma,79 ± 0.99%
same,"fraction unbound at 5 h, 10 µM",[1]; Mouse plasma,0.0003
same,"recovery at 5 h, 10 µM",[1]; Mouse plasma,83.7 ± 13.4%
same,"fraction unbound at 5 h, 10 µM",[1]; Rat plasma,0.0005
same,"recovery at 5 h, 10 µM",[1]; Rat plasma,63.4 ± 2.74%

# From patent EP4050002A1, “ANTI-PROLIFERATIVE AGENTS” (First Health Pharmaceuticals B.V., priority 2021, dated 2022)
